According to US5610185A, “Method for the treatment of hyperproliferative epithelial skin diseases by topical application of hydroxylated aromatic protein cross-linking compounds” (The United States of America as represented by the …, priority 1995, dated 1997):

What was measured:
[1] = test system: SQCC-Y1 human squamous carcinoma cells; assay: Cornified envelope (cross-linked protein) assay, SQCC-Y1 cells; format: cell-based; conditions: for cross-linked protein production by MC derivatives: SQCC-Y1 cells, FIG. 11, preliminary; for potency in cross-linking: of 15 aromatic compounds, FIG. 12
308 and SQCC-Y1 cells = assay: Cross-linked protein envelopes by tyrosine kinase inhibitors (Table II); format: cell-based; conditions: concentrations within the range for inhibition of tyrosine kinases
Protocol: (§1) The assay measures insoluble cross-linked protein envelopes as described (Hough-Monroe et al. Analytical biochem., 199, 25-28, 1991), with modifications as follows. Cornified envelopes were prepared by scraping monolayers into 2% sodium dodecylsulphate (SDS), 20 mM dithiothreitol (DTT) in phosphate buffered saline (PBS). Unattached cells were pelleted from medium and were resuspended in SDS/DTT and pooled with attached cells. Samples were boiled for 10 mins. Cornified envelope samples were examined under the microscope using phase contrast optics or were applied to an RC60 membrane (Schleicher and Schuell, Keene, N.H.) on a 96-well dot-blot apparatus attached to a vacuum. Samples were washed three times with SDS/DTT and the resultant protein spots on RC60 membrane were fixed and stained as described. Sports were excised and eluted with 1% NH3 OH concentrated solution, 66% methanol (200 ul) overnight. Absorbance of eluate was measured on a Titertek plate reader at 600 nm.
A range of tyrosine kinase inhibitors was tested for ability to produce cross-linked protein envelopes in 308 and SQCC-Y1 cells. All inhibitors were obtained commercially from LC Laboratories, Woburn, Mass. Concentrations used were within the range for inhibition of tyrosine kinases.

transglutaminase = conditions: Dlugosz and Yuspa, Cancer Res., 51, 4677-4684, 1991; cited from earlier work
[2] = test system: primary mouse keratinocytes; assay: Cornified envelope (cross-linked protein) assay, primary mouse keratinocytes; format: cell-based; conditions: 4° C. and 37° C., 48 hours
Protocol: FIGS. 3A and 3B. A: Time course for cornification of primary mouse keratinocytes in response to MC. Boxes represent […] Ca^2+, triangles represent 100 μM MC, 1.4 mM Ca^2+, and solid circles represent 1 mM MC, 1.4 mM Ca^2+. […] Cells were incubated in medium with 1.4 mM Ca^2+ and MC for 4 hours, then were incubated with MTT (0.5 mg/ml in medium) for a further 4 hours before determination of formazan production.
Primary mouse keratinocytes were isolated from BALB/c newborn mouse skin. Primary keratinocytes, the benign neoplastic keratinocyte cell lines 308 and SP-1 (Strickland et al, Cancer Res., 48, 165-169, 1988) and the mouse squamous cell carcinoma line 1-7 (Greenhalgh et al., Proc. Natl. Acad. Sci., 87, 643-647, 1990) were grown in Eagle's minimal essential medium with 8% fetal calf serum (FCS) (chelexed) and penicillin 20 iu/ml, streptomycin 20 ug/ml (P/S). Unless otherwise indicated, the Ca^2+ concentration in medium was adjusted to 0.05 mM (Hennings et al., Cells, 19, 245-254, 1980). A431 human epidermoid carcinoma cells were obtained from ATCC, Rockville, Md., and were routinely passaged in DMEM with 10% FCS, P/S, glutamine (2 mM) and pyruvate (1 mM). SQCC-Y1 human squamous carcinoma cells and non-tumorigenic HPV 18 and SV 40 infected human keratinocytes were kindly donated by Dr. James Rheinwald of Harvard University, Boston, Mass. and Dr. Richard Schlegel of Georgetown University, Washington D.C. respectively. Human cells were cultured in DMEM/Ham's F12 1:1, 10% FCS, P/S and epidermal growth factor 10 ng/ml.
Primary mouse keratinocytes were incubated with MC for 0, 0.5, 1, 4 and 48 hours and were processed as follows.
as §1
Cells were seeded at low density and were treated with MC for 3 days. Cells were then counted and increase in cell number was compared to untreated controls, or cells were processed for cross-linked protein.
Inhibitors were added 30 mins before MC or stsp (FIG. 6). Cross-linked protein was measured by the cornified envelope assay, described in Example 2.

**Q.** With COC(=O)c1cc2ccc(O)c(O)c2cn1.Cl [67F-36-A, 7,8-Dihydroxyisoquinoline-3-carboxylic acid methyl ester hydrochloride] as the molecule, how does the “cross-linked protein production by MC derivatives” value (from here on “cross-linked protein production”) [1] read?
**A.** inactive

**Q.** Which “cross-linked protein production” value [1] does the source give for COC(=O)c1ccc2c(O)c(O)ccc2c1 [67G-146-A, 5,6-Dihydroxy-2-naphthoic acid methyl ester] here?
**A.** active

**Q.** What about the “cross-linked protein production” value ([1]; listed as 67G-146A) of the same molecule?
**A.** clearly exhibit protein cross-linking activity

**Q.** What about the potency in cross-linking [1] of the same molecule?
**A.** most potent

**Q.** For O=C(/C=C/c1ccc(O)c(O)c1)OCCc1ccccc1 [67H-42-A, Caffeic acid β-phenylethyl ester], which “cross-linked protein production” value [1] is on record?
**A.** inactive

**Q.** With O=C(O)c1cc(N(Cc2ccccc2O)Cc2cc(O)ccc2O)ccc1O [lavendustin A] as the molecule, how does the “ability to induce cross-linking” value (308 and SQCC-Y1 cells) read?
**A.** unable to induce cross-linking

**Q.** With CN[C@@H]1C[C@H]2O[C@@](C)([C@@H]1OC)n1c3ccccc3c3c4c(c5c6ccccc6n2c5c31)C(=O)NC4 [staurosporine, reference compound] as the molecule, how does the “transglutaminase activity (literature)” value (transglutaminase) read?
**A.** increases TGase activity

**Q.** And the “cross-linked protein at 4° C. and 37° C.” value [2]?
**A.** temperature dependent

**Q.** Which results are given for O=C(C=Cc1cc(O)c(O)cc1O)OCCc1ccccc1 [67H-98-A, 2,4,5-Trihydroxycinnamic acid β-phenylethyl ester]?
**A.** cross-linked protein production by MC derivatives [1]: active; cross-linked protein production by MC derivatives ([1]; listed as 67H-98A): clearly exhibit protein cross-linking activity; potency in cross-linking [1]: most potent

**Q.** With COC1C=CC=C(C)C(=O)NC2=CC(=O)C=C(C2=O)C(OC)C(C)CC(OC)C(OC)C(C)C=C(C)C1OC(N)=O (centres unmarked) [herbimycin A] as the molecule, how does the “ability to induce cross-linking” value (308 and SQCC-Y1 cells) read?
**A.** unable to induce cross-linking

**Q.** Which results are given for O=C(C=Cc1cc(O)ccc1O)OCCc1ccccc1 [67H-124-A, 2.5-dihydroxycinnamic acid β-phenylethyl ester]?
**A.** cross-linked protein production by MC derivatives [1]: clearly exhibit protein cross-linking activity; potency in cross-linking [1]: most potent

**Q.** For O=C(CCc1ccc(O)c(O)c1)OCCc1ccccc1 [67H-69-A, 3-(3,4-Dihydroxyphenyl) propanoic aid β-phenylethyl ester], which “cross-linked protein production” value [1] is on record?
**A.** active

**Q.** What about the “cross-linked protein production” value ([1]; listed as 67H-69A) of the same molecule?
**A.** clearly exhibit protein cross-linking activity

**Q.** And the potency in cross-linking [1]?
**A.** most potent
